Results published in patent publication US7598341B2, “Molecules that selectively home to vasculature of premalignant or malignant lesions of the pancreas and other organs” (Burnham Institue for Medical Research, priority 2003, dated 2009).
Entries after “also recorded” stand apart in the source; their conditions may differ.

Key:
[1] = tested on: RIP1-Tag2 angiogenic islets and tumors; test: In vivo homing of phage (pools and individual phage) in RIP1-Tag2 mice; set-up: species or system mouse; conditions: phage-displayed peptide, i.v., FIG. 1D, with ex vivo binding patterns
Protocol: For in vivo selection of phage that home specifically to premalignant lesions and malignant tumors, the ex vivo pre-selected phage pool was injected intravenously into 12 week old RIP1-Tag2 mice through the tail vein, allowed to circulate for 7 minutes and heart-perfused with PBS to remove unbound intravascular phage. As the vasculature is preferentially available for the phage to bind in this selection, there is an enrichment of phage that bind to the endothelium of the target tissue.
The RIP1-Tag2 lesions and control tissues (brain, kidney, spleen, lung, ‘white’ pancreas lacking hemorrhagic lesions and liver were excised to allow for comparison of homing efficiencies. Cell suspensions were prepared by mechanical disruption of the tissues. Tissues were washed to remove unbound phage, and the bound phage rescued and amplified by adding E. coli. The phage pool was re-injected into mice at a similar disease stage, and the cycle repeated. In each experiment, non-recombinant control phage were used as a control for relative selectivity.
Sets of 96 phage clones were randomly collected from each homing phage population that selectively homed to premalignant angiogenic islets or pancreatic tumor cells. Peptide-encoding DNA inserts from collected phage clones were amplified by PCR, and the PCR products sequenced. Phage representing the most frequently appearing peptide motifs were individually tested for their ability to selectively home to the lesions on which they were selected, relative to other stages in the tumorigenesis pathway and to control organs. Six of the phage selected for further analysis were from the tumor screen (referred to as KAA, RGR, RSR, VGVA, VGVG and KAR), and one (EYQ) was picked from the angiogenic screen.

[2] = tested on: RIP1-Tag2 angiogenic islets and tumors; test: Localization of fluorescein-conjugated peptides after intravenous injection; type: in vivo, mouse; conditions: for homing selectivity of purified peptides: i.v. into 8-week or 12-week old RIP-Tag2 mice; for homing to normal islets, kidney, brain, liver, lung or spleen: purified peptides i.v.; for localization in RIP1-Tag2 angiogenic islets / localization in RIP1-Tag2 tumors / localization in normal islets: fluorescein-conjugated peptide i.v., 7 minutes circulation, FIG. 2
Protocol: Fluorescein-conjugated peptides corresponding to phage insert sequences were synthesized using an automated peptide synthesizer with standard solid-phase fluorenylmethoxycarbonyl (Fmoc) chemistry. […] of each individual fluorescein-conjugated peptide was injected intravenously into the tail vein of RIP1-Tag2 mice at 8 or 12 weeks of age, and into normal BL/6 mice. The peptide was allowed to circulate for 7 minutes, followed by heart perfusion first with PBS and then with Zn-buffered formalin. The RIP1-Tag2 pancreas and control organs (brain, kidney, liver, lung and spleen) were removed, fixed for one hour in formalin, washed with 1×PBS, placed in 30% sucrose for several hours, washed with 1×PBS, and embedded in OCT (Tissue-Tek). Each peptide was injected into at least three individual RIP1-Tag2 or normal mice at each of the different stages. To examine the localization of injected fluorescein-conjugated peptides, frozen sections ([…] thick) were cut on a cryostat, mounted in Vectashield Mounting Medium with DAPI (Vector Laboratories) and visualized under an inverted fluorescent microscope or a confocal microscope (Zeiss LSM 510 META).

[3] = tested on: squamous cell carcinoma in a K14-HPV16 mouse; test: Homing to HPV tumor; type: in vivo; conditions: FIG. 4A
Protocol: (§1) To determine whether phage identified to home to pancreatic tumors also home to other types of tumors, these phage were tested using animals having various types of tumors, including bTC3 subcutaneous tumor and MDA MB-435 subcutaneous tumor. bTC3 transplant tumors arise following subcutaneous inoculation of nude mice with cultured islet tumor-derived (bTC3) cells (Efrat et al., 1988). Since the vasculature of a subcutaneously grown bTC3 tumor derives from skin, we also tested another subcutaneous transplant tumor, arising from inoculation of the MDA-MB-435 human breast carcinoma cell line. Finally, K14-HPV16 mice, another well-studied transgenic mouse model of cancer that develop tumors of the squamous epithelial cells of the skin (Arbeit et al., 1994; Coussens et al., 1996), was used to compare RIP1-Tag2 islet tumors to a tumor with similar multistage pathogenesis arising in a different tissue.
(§2) Tumors were dissected from the ear or chest of K14-HPV16 mice. For the bTC3 allograft models, 10^6 bTC3 tumor cells (Efrat et al., 1988) were inoculated under the skin of the rear flank of nu/nu mice in a BALB/c background and allowed to grow until approximately 5 mm in size, and then used for experimental analysis. MDA-MB-435 xenograft models were generated by inoculating 10^6 tumor cells subcutaneously in the chest of nu/nu Balb/c mice. Tumors were used for the homing/binding experiments at 8-12 weeks after injection of the tumor cells.

[4] = tested on: MDA MB-435 subcutaneous tumor; test: Homing to MDA-MB-435 subcutaneous tumor; type: in vivo, mouse; conditions: fluorescein-conjugated peptide i.v., FIG. 4B
Protocol: as §1, §2

[5] = tested on: endothelial cell and pericyte markers (MECA-32, NG2); test: Co-localization of fluorescein-conjugated peptides with vascular markers; type: in vivo, mouse; conditions: fluorescein-conjugated peptide i.v.; for co-localization with endothelial cell and pericyte markers in RIP1-Tag2 islet lesions: MECA-32, NG2, FIG. 3
Protocol: To confirm that intravenous administration of phage libraries selects for phage carrying peptides that bind to endothelial molecules specific for the target vasculature, tissues were collected following i.v. infusion with the various fluorescein-conjugated peptides, sectioned, and evaluated with endothelial cell markers.
For immunohistochemistry, frozen slides were pre-incubated with blocking buffer (1×PNB from NEN Biosciences) for one hour, washed several times in 1×PBS and incubated with the primary antibody of interest overnight at 4° C. The cell-specific antibodies used were rat monoclonal anti-mouse CD31 (1:200; BD Pharmingen), rat monoclonal anti-mouse MECA-32 (1:200; BD Pharmingen), rabbit polyclonal anti-mouse NG2 (1:200; Chemicon), and rat monoclonal anti-mouse PDGFRb (CD140b) (1:200; eBioscience). The corresponding secondary antibodies; Cy-3 donkey anti-rabbit IgG and Rhodamine Red donkey anti-rat IgG (Jackson ImmunoResearch), were used at a 1:200 dilution and incubated for one hour at room temperature. The following species-matched immunoglobulins were used as negative controls; rabbit IgG (Vector Laboratories) and rat IgG (Jackson ImmunoResearch) at a 1:200 dilution. The slides were washed several times in 1×PBS and mounted in Vectashield Mounting Medium with DAPI (Vector Laboratories). Hematoxylin and eosin (H&E) staining was performed for histological grading of adjacent sections by standard methods, and lesions were graded as previously described (Lopez and Hanahan, 2002).
The primary analysis involved immunostaining with a mouse pan-endothelial cell antigen (MECA-32) antibody that recognizes a dimer of 50-55 kDa protein subunits present on all endothelial cells (Hallman et al., 1995; Leppink et al., 1989) (FIG. 3 B,C,H,I,N,O). Additional analyses involved immunostaining to reveal CD31/PE-CAM, or systemic infusion of a fluorescent-labeled lectin that binds to the endothelial lumen. In addition, tissue sections from peptide-infused mice were stained with an antibody recognizing NG2, a marker of the neovascular pericytes (Schlingemann et al., 1990, 1991) (FIG. 3 E,F,K,L,Q,R).

[6] = tested on: bTC3-derived subcutaneous transplant tumor in a nude mouse; test: Homing to bTC3 subcutaneous tumor; type: in vivo; conditions: FIG. 4A
Protocol: as §1, §2

[7] = tested on: RIP1-Tag2 pancreatic tumor, bTC3-derived subcutaneous transplant tumor, K14-HPV16 squamous cell carcinoma; test: Relative homing efficiency of individual phage in various tumor models (FIG. 4A); type: in vivo, mouse; conditions: phage from the RIP1-Tag2 tumor screen
Protocol: as §1, §2
FIG. 4A is bar graph showing homing efficiency of individual phage to a pancreatic tumor in a RIP1-Tag2 mouse, a bTC3-derived subcutaneous transplant tumor in a nude mouse, and a squamous cell carcinoma in a K14-HPV16 mouse.

| Substance | homing class of individual phage (angiogenic islets or tumors in vivo) [1] | homing selectivity of purified peptides [2] | homing to normal islets, kidney, brain, liver, lung or spleen [2] | homing to HPV tumor [3] | homing to MDA tumor [4] | co-localization with MECA-32 or NG2 in adjacent exocrine pancreas or normal pancreatic islets [5] | co-localization with endothelial cell and pericyte markers in RIP1-Tag2 islet lesions [5] | homing to TC3 tumor [6] | relative homing efficiencies in the various tumor models (category) [7] | localization in RIP1-Tag2 angiogenic islets [2] | localization in RIP1-Tag2 tumors [2] | localization in normal islets [2] |
| --- | --- | --- | --- | --- | --- | --- | --- | --- | --- | --- | --- | --- |
| CEYQLDVE [linear homing peptide] | angiogenic islet-selective | highly selective for premalignant angiogenic islets | did not appreciably home | – | – | – | – | – | – | – | – | – |
| CKAAKNK | tumor-selective | malignant solid tumors | did not appreciably home | did not home appreciably | homed | no co-localization | some co-localization both with endothelial cell and pericyte markers; also recorded: co-localized both with the endothelial cell and pericyte markers | did not home appreciably | selectively home to RIP1-Tag2 tumors | little or no localization | abundant localization | little or no localization |
| CKGAKAR | tumor-selective | malignant solid tumors | did not appreciably home | homed | – | – | – | did not home appreciably | more general homing to other tumors in addition to RIP1-Tag2 | – | – | – |
| CRSRKG [linear homing peptide] | angiogenic islet-selective | highly selective for premalignant angiogenic islets | did not appreciably home | did not home appreciably | did not home appreciably | no co-localization | some co-localization both with endothelial cell and pericyte markers; also recorded: co-localized both with the endothelial cell and pericyte markers | homed | – | abundant accumulation | little or no localization | little or no localization |
| FRVGVADV [linear homing peptide; homes to both types of lesion] | home to both types of lesion | both angiogenic islets and tumors | did not appreciably home | did not home appreciably | – | – | – | did not home appreciably | selectively home to RIP1-Tag2 tumors | – | – | – |
| VGVGEWSV | tumor-selective | – | – | did not home appreciably | – | – | – | homed | more general homing to other tumors in addition to RIP1-Tag2 | – | – | – |
